Data set [1] deals with T1, synthetic peptide, Aβ (10-43) (Homo sapiens, UniProt P05067).
T1 construct: The 10-43 amino acid fragment of Aβ was synthesized; made in house; host or cells: chemical (FMOC) peptide synthesis, no expression host
The data set can be described thus: Inhibition of [14C]Chrysamine G binding to Aβ (10-43). The following applies: for binding affinity in words: inhibition of [14C]Chrysamine G binding to Aβ (10-43), compared with Chrysamine G. Here is the method: Binding assays were performed in 12×75 mm borosilicate glass tubes. […] To the above solution, 25 μl of a 0.36 mg/ml suspension of Aβ (10-43) in H2O was added and 10% ethanol was added to bring the volume to 950 μl. […] The binding mixture was incubated for 30 min at room temperature.
Ki is defined as IC50/(1+[L]/KD ), where [L] is the concentration of [^14C]

Data set [2] is described as follows: Octanol/water partitioning. Format: physicochemical. The following applies: 1-octanol / phosphate buffered saline pH 7.4.
Description: The mixture was then centrifuged at 1,000 g to facilitate the formation of two clear phases. […] Concentrations were determined after correction for the molar absorptivity differences in the two solvents and the partition coefficient expressed as the concentration in the octanol layer divided by the concentration in the aqueous layer. Experiments were done in triplicate.
Data set [3] deals with rat pheochromocytoma (PC-12) cells. Particulars: previously reported; cited from earlier work.
For data set [4] the following is noted: guinea pigs; cited from earlier work.
Data set [5] relates to rat pheochromocytoma (PC-12) cells. The following applies: PC-12 cells, MTT reduction (FIG. 14). Here is the method:
Rat pheochromocytoma cells (PC-12) were grown in RPMI 1640 media with 10% fetal bovine serum. Approximately 5,000 exponentially growing cells were plated in 96-well plates in a volume of 100 μl of media and allowed to incubate at 37° C. overnight. […] The cells were incubated for 24 hrs prior to the addition of 13.3 μl of 5 mg/ml MTT (3,(4,5-dimethylthiazol-2-yl)2,5-diphenyltetrazolium bromide) in sterile phosphate buffered saline. After 4.5 hrs at 37° C., 100 μl of extraction buffer (20% w/v SDS in 50% DMF/water; pH adjusted to 4.7 with 2.5% of 80% acetic acid and 2.5% 1N HCl) was added and the plates were incubated overnight. Hansen et al., J. Immunol. Methods 119: 203 (1989). Color development was then measured at 560 nm. Maximum viability was defined as the absorbance of control wells to which only the 20 μl of distilled, deionized H2O was added. Maximum toxicity was defined by wells in which the cells were lysed by addition of 0.1% (final concentration) of Triton X-100.
A general note: Tetrazolium assays rely on reduction of a dye to a coloured formazan, in cell work by metabolically active cells.

The mark [6] stands for this setting: Ki for inhibition of [14C]Chrysamine G binding to Aβ (10-43), Ki=IC50/(1+[L]/KD), KD 0.26 μM.

Structures are written as SMILES. Where “and” joins values, the source holds several entries; their conditions need not be identical. Equal values may be shown once. Read-outs that look alike come from different tables or passages of the source.

T1 sequence (P05067 681-714): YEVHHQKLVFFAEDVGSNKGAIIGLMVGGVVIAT

For `O=C(O)c1cc(N=Nc2ccc(-c3ccc(N=Nc4ccc(O)c(C(=O)O)c4)cc3S(=O)(=O)O)c(S(=O)(=O)O)c2)ccc1O` [2,2′-(SO3)2CG], the “binding affinity in words” value in data set [1] was “inactivity”.
`O=C(O)c1cc(N=Nc2ccc(-c3ccc(N=Nc4ccc(O)c(C(=O)O)c4)c(C(=O)O)c3)cc2C(=O)O)ccc1O` [3,3′-(COOH)2CG]: in data set [1], the “decrease in affinity / loss of activity relative to Chrysamine G” value was found to be 7 fold.
As for `O=C(O)c1cc(N=Nc2ccc(-c3ccc(N=Nc4ccc(O)c(C(=O)O)c4)c(Br)c3)cc2Br)ccc1O` [3,3′-Br2CG], in data set [1], the “binding affinity in words” value is listed as “about half that of Chrysamine G”.
The same measure, in the same setting: next, `O=C(O)c1cc(N=Nc2ccc(-c3ccc(N=Nc4ccc(O)c(C(=O)O)c4)c(Cl)c3)cc2Cl)ccc1O` [3,3′-Cl2CG]: “about half that of Chrysamine G”.
As for `O=C(O)c1cc(N=Nc2ccc(-c3ccc(N=Nc4ccc(O)c(C(=O)O)c4)c(I)c3)cc2I)ccc1O` [3,3′-I2CG], the “binding affinity in words” value in data set [1] is recorded as “about half that of Chrysamine G”. This compound also yielded an octanol/water partition coefficient in data set [2] of 112.9±7.3.
The term Ki denotes a dissociation constant, usually derived from enzyme kinetics or from competition with a known ligand. With `O=C(O)c1cc(F)cc(N=Nc2ccc(-c3ccc(N=Nc4cc(F)cc(C(=O)O)c4O)cc3)cc2)c1O` [(5-FSA)CG, 4,4′-bis(2-hydroxy-3-carboxy-5-fluorophenylazo)-biphenyl], the Ki in data set [1] (setting [6]) amounted to 1160 ± 190 nM. In addition, the “binding affinity in words” value in data set [1] is “one-third as potent as Chrysamine G”.
On to `COC(=O)c1cc(N=Nc2ccc(-c3ccc(N=Nc4ccc(O)c(C(=O)OC)c4)cc3)cc2)ccc1O` [CG(COOMe)2, 4,4′-bis(3-methoxycarbonyl-4-hydroxyphenylazo)-biphenyl], for which the “decrease in affinity / loss of activity relative to Chrysamine G” value in data set [1] is given as “about 200 fold”.
`Nc1c(/N=N/c2ccc(-c3ccc(/N=N/c4cc(S(=O)(=O)O)c5ccccc5c4N)cc3)cc2)cc(S(=O)(=O)O)c2ccccc12` [Congo red, reference compound]: in data set [3], the “concentration achieving complete protection” value was 20 µM and the “concentrations protecting against Aβ-induced toxicity” value is recorded as “over 2 μM”. In addition, the brain/kidney ratio entry in data set [4] is listed as “approximately 0.07”. The inhibitory constant (Ki) in data set [1] (setting [6]) is 2820 nM and 2800 nM. The octanol/water partition coefficient in data set [2] worked out at 0.665±0.037.
In the case of `O=C(O)c1cc(N=Nc2ccccc2)ccc1O` [aniline derivative], the energy of binding in data set [1] came to 23 kJ/mol. The Ki in data set [1] (read-out: Ki for inhibition of [14C]Chrysamine G binding to Aβ (10-43)) is 73000 nM.
Take `Oc1ccc(N=Nc2ccc(-c3ccc(N=Nc4ccc(O)cc4)cc3)cc2)cc1` [phenol derivative]: the “effect on toxicity induced by 1 μM Aβ (25-35)” value in data set [5] was “no protective effects”. Further, the “binding affinity in words” value in data set [1] was “completely destroyed binding affinity”.
As to `O=C(O)c1ccccc1O` [salicylic acid, reference compound], the “binding affinity in words” value in data set [1] is “total lack of binding activity”.
`Cc1cc(-c2cc(C)c(N=Nc3ccc(O)c(C(=O)O)c3)c(C)c2)cc(C)c1N=Nc1ccc(O)c(C(=O)O)c1` [tetramethyl analog of Chrysamine G, 4,4′-bis(3-carboxy-4-hydroxyphenylazo)-3,3′,5,5′-tetramethylbiphenyl] displayed an inhibitory constant (Ki) in data set [1] (setting [6]) of 750 ± 90 nM. For the same compound, the “binding affinity in words” value in data set [1] was “about twice that of Chrysamine G”.

Values taken from patent publication US6417178B1, “Amyloid binding nitrogen-linked compounds for the antemortem diagnosis of alzheimer's disease, in vivo imaging and prevention of amyloid deposits” (University of Pittsburgh, priority 1994, dated 2002).
